Literature values, collected in patent publication US6649649B1, “Method of treating colonic adenomas” (Merck & Co., Inc., priority 1995, dated 2003).

Columns and labels:
incident colon cancer = settings: persons who regularly used aspirin compared to those who used no aspirin
[1] = tested on: polyps in patients with familial polyposis
sporadic colonic polyps = settings: early sporadic polyps (67% of the polyps were <5 mm)

## CS(=O)(=O)Nc1ccc([N+](=O)[O-])cc1OC1CCCCC1 [NS-398]
PGHS-1 or PGHS-2
  selectivity for inhibition of either PGHS-1 or PGHS-2: selective PGHS-2 inhibitor
rat
  analgesic effect: analgesic effects
  antiinflammatory effect: antiinflammatory
  antipyretic effect: antipyretic
  ulcerogenicity: without being ulcerogenic

## COc1ccc2c(c1)c(CC(=O)O)c(C)n2C(=O)c1ccc(Cl)cc1 [indomethacin]
PGHS-1 or PGHS-2
  selectivity for inhibition of either PGHS-1 or PGHS-2: little selectivity

## CC(=O)Oc1ccccc1C(=O)O [aspirin]
Incident colon cancer
  lower risk of incident colon cancer: 40%
PGHS-1 or PGHS-2
  selectivity for inhibition of either PGHS-1 or PGHS-2: little selectivity

## CC1=C(CC(=O)O)c2cc(F)ccc2/C1=C\c1ccc([S+](C)[O-])cc1 (centres unmarked) [sulindac]
[1]
  polyp regression: results in polyp regression
Sporadic colonic polyps
  regression of sporadic colonic polyps: did not result in a regression
PGHS-1 or PGHS-2
  inhibition of PGHS-1 and PGHS-2: inhibiting both PGHS-1 and PGHS-2
